In patent US20250263424A1, “KRAS INHIBITORS” (Bristol-Myers Squibb Company, priority 2022, published 2025) one finds IC50 data, which are given here for 20 compounds.

As a reminder, the IC50 is the concentration that inhibits the measured activity by half.

Molecules are shown by their SMILES. Read-outs that look alike come from different tables or passages of the source. A value given as a limit tells only on which side of the number the result lay.

The target of the assay is Recombinant GMPPNP-loaded KRAS G12C (KRAS-G12C(ON), active form) (Homo sapiens, UniProt P01116, G12C). Nature of the assay: KRAS G12C RAF Disruption Assay (HTRF). The class given is biochemical. The settings on record: GMPPNP-loaded KRAS G12C 5 nM, GST-RAF1 RBD 9 nM, read-out: KRASG12C RAF Disruption Assay (IC50). Here is the method:
This is a functional assay that measures activity of compounds against […]., the active form of KRAS G12C. Recombinant GMPPNP-loaded KRAS G12C (5 nM) was treated with compound at room temperature for 20 minutes in assay buffer (50 mM Tris pH 7.5, 100 mM NaCl, 1 mM MgCl2, 1 mM DTT, 100 μg/ml BSA). Recombinant GST-RAF1 RBD (9 nM) was added, and the reaction mixture was incubated for 20 minutes. SA-Tb (0.25 nM) was added, and the reaction mixture was incubated for 3 hours. HTRF signal was measured (PerkinElmer Envision), the signal ratio (λem 520/λem 495) was calculated, and IC50 values were calculated from the dose-response curve.

Chain of Recombinant GMPPNP-loaded KRAS G12C (KRAS-G12C(ON), active form) (P01116 1-188 isoform P01116-2 G12C): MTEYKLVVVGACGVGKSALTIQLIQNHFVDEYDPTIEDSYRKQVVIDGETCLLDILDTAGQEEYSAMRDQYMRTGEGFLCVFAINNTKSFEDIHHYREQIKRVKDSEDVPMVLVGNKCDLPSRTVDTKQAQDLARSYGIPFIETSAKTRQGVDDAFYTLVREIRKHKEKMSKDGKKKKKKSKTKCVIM

As to `C#Cc1c(F)ccc2cc(O)cc(-c3ccc4c(N5C[C@H]6CC[C@@H](C5)N6C(=O)/C(F)=C/c5cccc(C)n5)nc(OC[C@@H]5CCCN5C)nc4c3F)c12` [Example 35, (Z)-1-((1R,5S)-3-(7-(8-ethynyl-7-fluoro-3-hydroxynaphthalen-1-yl)-8-fluoro-2-(((S)-1-methylpyrrolidin-2-yl)methoxy)quinazolin-4-yl)-3,8-diazabicyclo[3.2.1]octan-8-yl)-2-fluoro-3-(6-methylpyridin-2-yl)prop-2-en-1-one], where the note is “values in nM”, the half-maximal inhibitory concentration (IC50) came to 290 nM.

As for `O=C(/C(F)=C/c1nccs1)N1[C@@H]2CC[C@H]1CN(c1nc(OC[C@@]34CCCN3C[C@H](F)C4)nc3c(F)c(-c4cccc5cccc(Cl)c45)ccc13)C2` [Example 10, (Z)-1-((1R,5S)-3-(7-(8-chloronaphthalen-1-yl)-8-fluoro-2-(((2R,7aS)-2-fluorotetrahydro-1H-pyrrolizin-7a(5H)-yl)methoxy)quinazolin-4-yl)-3,8-diazabicyclo[3.2.1]octan-8-yl)-2-fluoro-3-(thiazol-2-yl)prop-2-en-1-one], the IC50 (values given in μM) is 93000 nM.

On to `Cc1cc(N)nc(-c2c(Cl)cc3c(N4CC5CCC(C4)N5C(=O)/C(F)=C/c4ccccn4)nc(OC[C@]45CCCN4C[C@H](F)C5)nc3c2F)c1C(F)(F)F` (single isomer, unassigned) [Example 5], for which the IC50 (values given in μM) was determined as 2700 nM.

Turning to `CN1CCC[C@H]1COc1nc(N2CCN(C(=O)/C(F)=C/c3cnccn3)[C@@H](CC#N)C2)c2ccc(-c3cc(Cl)ccc3OC(F)(F)F)c(F)c2n1` [Example 68, 2-((S)-4-(7-(5-chloro-2-(trifluoromethoxy)phenyl)-8-fluoro-2-(((S)-1-methylpyrrolidin-2-yl)methoxy)quinazolin-4-yl)-1-((Z)-2-fluoro-3-(pyrazin-2-yl)acryloyl)piperazin-2-yl)acetonitrile], the half-inhibitory concentration (IC50) (values in nM) was found to be 20400 nM.

For the compound `COCCCN1CCC(Oc2nc(N3CCN(C(=O)/C(F)=C/c4ccccn4)[C@@H](CC#N)C3)c3ccc(-c4cccc5cccc(Cl)c45)c(F)c3n2)CC1` [Example 73, (S,Z)-2-(4-(7-(8-chloronaphthalen-1-yl)-8-fluoro-2-((1-(3-methoxypropyl)piperidin-4-yl)oxy)quinazolin-4-yl)-1-(2-fluoro-3-(pyridin-2-yl)acryloyl)piperazin-2-yl)acetonitrile], the IC50 (values in nM) was found to be 710 nM.

As for `Cc1cc(N)nc(-c2c(Cl)cc3c(N4C[C@]5(NC(=O)/C(F)=C/c6nccs6)CC[C@H]4C5)nc(OC[C@@H]4CCCN4C)nc3c2F)c1C(F)(F)F` (atropisomer, axis not shown; (M)) [Example 48, (2Z)-N-[(1S,4S)-2-[(7M)-7-[6-amino-4-methyl-3-(trifluoromethyl)pyridin-2-yl]-6-chloro-8-fluoro-2-{[(2S)-1-methylpyrrolidin-2-yl]methoxy}quinazolin-4-yl]-2-azabicyclo[2.2.1]heptan-4-yl]-2-fluoro-3-(thiazol-2-yl)prop-2-enamide], the IC50 (values given in μM) was determined as 2590 nM.

Turning to `Cc1ccc2[nH]ncc2c1-c1ccc2c(N3CCN(C(=O)/C(F)=C/c4nccs4)[C@@H](CC#N)C3)nc(OC[C@@]34CCCN3C[C@H](F)C4)nc2c1F` [Example 77, 2-((2S)-4-(8-fluoro-2-(((2R,7aS)-2-fluorotetrahydro-1H-pyrrolizin-7a(5H)-yl)methoxy)-7-(5-methyl-1H-indazol-4-yl)quinazolin-4-yl)-1-((Z)-2-fluoro-3-(thiazol-2-yl)acryloyl)piperazin-2-yl)acetonitrile], the 50% inhibitory concentration (IC50) (values in nM) turned out to be 50 nM.

With `Cc1cc(N)nc(-c2c(Cl)cc3c(N4CC5CC(C4)N5C(=O)/C(F)=C/c4nccs4)nc(OC[C@]45CCCN4C[C@H](F)C5)nc3c2F)c1C(F)(F)F` [Example 12, (Z)-1-(3-((7M)-7-(6-amino-4-methyl-3-(trifluoromethyl)pyridin-2-yl)-6-chloro-8-fluoro-2-(((2R,7aR)-2-fluorotetrahydro-1H-pyrrolizin-7a(5H)-yl)methoxy)quinazolin-4-yl)-3,6-diazabicyclo[3.1.1]heptan-6-yl)-2-fluoro-3-(thiazol-2-yl)prop-2-en-1-one], the 50% inhibitory concentration (IC50) (values given in μM) came to 9200 nM.

`C#Cc1c(F)ccc2cc(O)cc(-c3c(Cl)cc4c(N5CC6CCC(C5)N6C(=O)/C(F)=C/c5ccccn5)nc(OC[C@@H]5CCCN5C)nc4c3F)c12` (single isomer, unassigned) [Example 20, Isomer 2]: the half-inhibitory concentration (IC50) (values given in μM) was above 100000 nM.

Consider `COc1ccc(Cl)cc1-c1ccc2c(N3CCN(C(=O)/C(F)=C/c4ncccn4)[C@@H](CC#N)C3)nc(OC[C@@H]3CCCN3C)nc2c1F` [Example 63, 2-((S)-4-(7-(5-chloro-2-methoxyphenyl)-8-fluoro-2-(((S)-1-methylpyrrolidin-2-yl)methoxy)quinazolin-4-yl)-1-((Z)-2-fluoro-3-(pyrimidin-2-yl)acryloyl)piperazin-2-yl)acetonitrile], for which the half-inhibitory concentration (IC50) (values in nM) is 9800 nM.

Regarding `Cc1ccc2[nH]ncc2c1-c1ccc2c(N3CCN(C(=O)/C(F)=C/c4ncccn4)[C@@H](CC#N)C3)nc(OC[C@@H]3CCCN3C)nc2c1F` [Example 52, 2-((2S)-1-((Z)-2-fluoro-3-(pyrimidin-2-yl)acryloyl)-4-(8-fluoro-7-(5-methyl-1H-indazol-4-yl)-2-(((S)-1-methylpyrrolidin-2-yl)methoxy)quinazolin-4-yl)piperazin-2-yl)acetonitrile], the IC50 (values in nM) turned out to be 450 nM.

For `CN1CCC[C@H]1COc1nc(N2CCN(C(=O)/C(F)=C/c3ncccn3)[C@@H](CC#N)C2)c2ccc(-c3c(O)cccc3F)c(F)c2n1` [Example 55, 2-((2S)-1-((Z)-2-fluoro-3-(pyrimidin-2-yl)acryloyl)-4-(8-fluoro-7-(2-fluoro-6-hydroxyphenyl)-2-(((S)-1-methylpyrrolidin-2-yl)methoxy)quinazolin-4-yl)piperazin-2-yl)acetonitrile], the half-inhibitory concentration (IC50) (values in nM) came to 1000 nM.

On to `Cc1cc(N)nc(-c2c(Cl)cc3c(N4CCC5C4CCN5C(=O)/C(F)=C/c4nccs4)nc(OC[C@]45CCCN4C[C@H](F)C5)nc3c2F)c1C(F)(F)F` (single isomer, unassigned) [Example 25, Isomer 1], for which the IC50 (values given in μM) stood at 14100 nM.

With `Cc1cc2[nH]ncc2c(-c2ccc3c(N(C)[C@@H]4CCN(C(=O)/C(F)=C/c5nccs5)C4)nc(OC[C@@]45CCCN4C[C@H](F)C5)nc3c2F)c1Cl` [Example 84, (Z)-1-((3R)-3-((7-(5-chloro-6-methyl-1H-indazol-4-yl)-8-fluoro-2-(((2R,7aS)-2-fluorotetrahydro-1H-pyrrolizin-7a(5H)-yl)methoxy)quinazolin-4-yl)(methyl)amino)pyrrolidin-1-yl)-2-fluoro-3-(thiazol-2-yl)prop-2-en-1-one], where the note is “values in nM”, the half-inhibitory concentration (IC50) turned out to be 98 nM.

In the case of `C#Cc1cccc2cccc(-c3ccc4c(N5CCN(C(=O)/C(F)=C/c6ccccn6)C[C@@H]5C)nc(OC[C@@]56CCCN5C[C@H](F)C6)nc4c3F)c12` [Example 88, (Z)-1-((S)-4-(7-(8-ethynylnaphthalen-1-yl)-8-fluoro-2-(((2R,7aS)-2-fluorotetrahydro-1H-pyrrolizin-7a(5H)-yl)methoxy)quinazolin-4-yl)-3-methylpiperazin-1-yl)-2-fluoro-3-(pyridin-2-yl)prop-2-en-1-one], where the note is “values in nM”, the half-inhibitory concentration (IC50) amounted to 43 nM.

In the case of `Cc1cc(N)nc(-c2c(Cl)cc3c(N4CC[C@@H]5CC[C@H](C4)N5C(=O)/C(F)=C/c4nccs4)nc(OC[C@@]45CCCN4C[C@H](F)C5)nc3c2F)c1C(F)(F)F` [Example 71, (Z)-1-((1R,6S)-3-(7-(6-amino-4-methyl-3-(trifluoromethyl)pyridin-2-yl)-6-chloro-8-fluoro-2-(((2R,7aS)-2-fluorotetrahydro-1H-pyrrolizin-7a(5H)-yl)methoxy)quinazolin-4-yl)-3,9-diazabicyclo[4.2.1]nonan-9-yl)-2-fluoro-3-(thiazol-2-yl)prop-2-en-1-one], the IC50 (values in nM) worked out at 9000 nM.

`Cc1cc(N)nc(-c2c(Cl)cc3c(N4CCC5(CN(C(=O)/C(F)=C/c6nccs6)C5)C4)nc(OC[C@@]45CCCN4C[C@H](F)C5)nc3c2F)c1C(F)(F)F` (atropisomer, axis not shown; (M)) [Example 9, (Z)-1-(6-((7M)-7-(6-amino-4-methyl-3-(trifluoromethyl)pyridin-2-yl)-6-chloro-8-fluoro-2-(((2R,7aS)-2-fluorotetrahydro-1H-pyrrolizin-7a(5H)-yl)methoxy)quinazolin-4-yl)-2,6-diazaspiro[3.4]octan-2-yl)-2-fluoro-3-(thiazol-2-yl)prop-2-en-1-one]: the concentration for half-maximal inhibition (IC50) (values given in μM) was 1900 nM.

`CN1CCC[C@H]1COc1nc(N2C[C@H]3CC[C@@H](C2)N3C(=O)/C(F)=C/c2ccccn2)c2ccc(-c3ccc(F)c4sc(N)nc34)c(F)c2n1` [Example 80, (Z)-1-((1R,5S)-3-(7-(2-amino-7-fluorobenzo[d]thiazol-4-yl)-8-fluoro-2-(((S)-1-methylpyrrolidin-2-yl)methoxy)quinazolin-4-yl)-3,8-diazabicyclo[3.2.1]octan-8-yl)-2-fluoro-3-(pyridin-2-yl)prop-2-en-1-one]: the IC50 (values in nM) was determined as 550 nM.

As for `CN1CCC[C@H]1COc1nc(N2CCN(C(=O)/C(F)=C/c3cccnn3)[C@@H](CC#N)C2)c2ccc(-c3c(O)cccc3F)c(F)c2n1` [Example 57], the IC50 (values in nM) came out at 130 nM.

On to `Cc1cccc(/C=C(\F)C(=O)N2CCN(c3nc(OC[C@@H]4CCCN4C)nc4c(F)c(-c5cccc6cccc(Cl)c56)ccc34)C[C@@H]2CC#N)n1` [Example 36, 2-((S)-1-((Z)-2-fluoro-3-(6-methylpyridin-2-yl)acryloyl)-4-(8-fluoro-7-(8-chloronaphthalen-1-yl)-2-(((S)-1-methylpyrrolidin-2-yl)methoxy)quinazolin-4-yl)piperazin-2-yl)acetonitrile], for which the half-maximal inhibitory concentration (IC50) (values in nM) was found to be 25 nM.
